In brackets after ≈: the same amount, converted by molar mass. Like-named read-outs stand apart in the source and are kept apart here.
What was measured:
[1] = system: wild type S. epidermidis RP62A; experiment: microbe, parasite or virus in culture; assay type: cell-based, Staphylococcus epidermidis; details: for MIC: Sensitive strain (SPase without the resistance-conferring Pro); for minimal inhibitory concentration (MIC): Table 3, P3 position derivatives, unit not given
[2] = system: lepB(P29S) S. aureus 8325; experiment: microbe, parasite or virus in culture; assay type: cell-based, Staphylococcus aureus; details: for MIC: Sensitive (genetically sensitized) strain; for minimal inhibitory concentration (MIC): Table 3, P3 position derivatives, unit not given
[3] = system: lepB(P84L) E. coli MG1655; experiment: microbe, parasite or virus in culture; assay type: cell-based, Escherichia coli; details: for minimal inhibitory concentration (MIC): Table 3, P3 position derivatives, unit not given
[4] = system: lepB(P84L) P. aeruginosa PAO1; experiment: microbe, parasite or virus in culture; assay type: cell-based, Pseudomonas aeruginosa; details: for minimal inhibitory concentration (MIC): Table 3, P3 position derivatives, unit not given
wild type E. coli MG1655 = experiment: microbe, parasite or virus in culture; assay type: cell-based, Escherichia coli
[5] = system: Brevibacillus brevis ATCC 8246; experiment: microbe, parasite or virus in culture; assay type: cell-based; details: ATCC8246
[6] = system: Rhodococcus equi ATCC 6939; experiment: microbe, parasite or virus in culture; assay type: cell-based; details: Rhodococcus (subgen. Prescottella) equi, ATCC6939
[7] = system: Rhodococcus opacus DSM 1069; experiment: microbe, parasite or virus in culture; assay type: cell-based; details: Rhodococcus opacus, DSM1069; read-out: MIC
[8] = system: Streptococcus agalactiae COH-1; experiment: microbe, parasite or virus in culture; assay type: cell-based
[9] = system: Streptococcus pyogenes M1-5448; experiment: microbe, parasite or virus in culture; assay type: cell-based; details: Streptococcus pyogenes, M15448; read-out: MIC
[10] = system: Streptococcus pneumoniae R800; experiment: microbe, parasite or virus in culture; assay type: cell-based; details: Streptococcus pneumoniae, R800; read-out: MIC
[11] = system: Corynebacterium efficiens DSM 44549; experiment: microbe, parasite or virus in culture; assay type: cell-based; details: Corynebacterium efficiens, DSM44549; read-out: MIC
[12] = system: Corynebacterium glutamicum DSM 44475; experiment: microbe, parasite or virus in culture; assay type: cell-based; details: DSM44475
Lactococcus lactis = experiment: microbe, parasite or virus in culture; assay type: cell-based; details: Lactococcus lactis, several values = different isolates/subspecies; read-out: MIC
[13] = system: S. epidermidis, S. aureus, E. coli, and P. aeruginosa; experiment: MIC panel; assay type: cell-based; details: all bacteria / organisms tested
[14] = system: Gram-negative strains (E. coli, P. aeruginosa); experiment: MIC panel; assay type: cell-based; details: Gram-negative pathogens
[15] = system: Gram-positive bacteria (S. epidermidis, S. aureus); experiment: MIC panel; assay type: cell-based
wild type S. aureus 8325 = experiment: microbe, parasite or virus in culture; assay type: cell-based, Staphylococcus aureus
[16] = system: S. epidermidis ATCC 35984; experiment: MIC of selected compounds; assay type: cell-based; details: Table 1
[17] = system: spsB(S29P) S. epidermidis RP62A; experiment: microbe, parasite or virus in culture; assay type: cell-based, Staphylococcus epidermidis
[18] = system: wild type P. aeruginosa PAO1; experiment: microbe, parasite or virus in culture; assay type: cell-based, Pseudomonas aeruginosa; details: Resistant strain (wild type)
[19] = system: S. epidermidis PAS9002 (SPase S31P); assay type: cell-based, Staphylococcus epidermidis
[20] = system: E. coli PAS0232 (SPase P84S); assay type: cell-based, Escherichia coli
[21] = system: P. aeruginosa PAS2006 (SPase P84S); assay type: cell-based, Pseudomonas aeruginosa
[22] = Staphylococcus epidermidis, read-out: MIC
[23] = Escherichia coli, MG1655, Resistant strain (wild type), read-out: MIC

With `CCCCCCCCCCCCCCCC(=O)N(C)[C@H](CO)C(=O)N[C@H](C)C(=O)NCC(=O)N(C)[C@@H]1C(=O)N[C@@H](C)C(=O)N[C@H](C(=O)O)Cc2cc(c(O)c([N+](=O)[O-])c2)-c2cc1ccc2O` [Arylomycin B-C16, arylomycin B-C16] the activity in words [1] was “potent activity”, the MIC [1, 22] was 0.13 µg/mL (≈ 0.14 µM) and the activity in words [2] was “has activity”. The MIC ([2]; Staphylococcus aureus, read-out: MIC) was 8 µg/mL, the activity in words [3] was “has activity” and the MIC ([3]; Escherichia coli, MG1655, Sensitive (genetically sensitized) strain, read-out: MIC) was 2 µg/mL. For the same compound, the activity in words [4] was “has activity”, the MIC ([4]; Pseudomonas aeruginosa, PAO1, Sensitive (genetically sensitized) strain, read-out: MIC) was 4 µg/mL and the activity in words (wild type E. coli MG1655) was “no activity”. For the same compound, the MIC (wild type E. coli MG1655; [23]) was over 64 µg/mL, the MIC [5] was over 64 µg/mL and the MIC [6] was 32 µg/mL (≈ 34.6 µM). For the same compound, the MIC [7] was 4 µg/mL (≈ 4.32 µM), the “fold more activity than arylomycin C16” value [8] was “greater than 16 fold” and the MIC ([8]; Streptococcus agalactiae, COH1) was 8 µg/mL (≈ 8.64 µM). The MIC [9] was 4 µg/mL (≈ 4.32 µM), the MIC [10] was 16 µg/mL (≈ 17.3 µM) and the MIC [11] was 16 µg/mL (≈ 17.3 µM). It also gave an MIC [12] of 2 µg/mL (≈ 2.16 µM) and an MIC (Lactococcus lactis) of 32 µg/mL (≈ 34.6 µM).
`CCCCCCCCCCCCCCCC(=O)N(C)[C@H](CO)C(=O)N[C@H](C)C(=O)NCC(=O)N(C)[C@@H]1C(=O)N[C@@H](CCCO)C(=O)N[C@H](C(=O)O)Cc2ccc(O)c(c2)-c2cc1ccc2O` [Compound 31] was tested, and the “minimal inhibitory concentration (MIC)” value [1] was over 64, the “minimal inhibitory concentration (MIC)” value [2] was over 64 and the “minimal inhibitory concentration (MIC)” value [3] was over 64. For the same compound, the “minimal inhibitory concentration (MIC)” value [4] was over 64 and the activity in words [13] was “All activity was lost”.
With `CCCCCCCCCCCCCCCC(=O)N(C)[C@H](CO)C(=O)N[C@H](C)C(=O)NCC(=O)N(C)[C@@H]1C(=O)N[C@@H](CCCCO)C(=O)N[C@H](C(=O)O)Cc2ccc(O)c(c2)-c2cc1ccc2O` [Compound 32] the “minimal inhibitory concentration (MIC)” value [1] was over 64, the “minimal inhibitory concentration (MIC)” value [2] was over 64 and the “minimal inhibitory concentration (MIC)” value [3] was over 64. For the same compound, the “minimal inhibitory concentration (MIC)” value [4] was over 64 and the activity in words [13] was “All activity was lost”.
`CCCCCCCCCCCCCCCC(=O)N(C)[C@H](CO)C(=O)N[C@H](C)C(=O)NCC(=O)N(C)[C@@H]1C(=O)N[C@@H](C)C(=O)N[C@H](C(=O)O)Cc2cc(N)c(O)c(c2)-c2cc1ccc2O` [Compound 36] was tested, and the MIC [1, 22] was 8 µg/mL (≈ 8.93 µM), the MIC (wild type E. coli MG1655; [23]) was over 64 µg/mL and the MIC [5] was over 64 µg/mL. For the same compound, the “fold loss of activity relative to the parent compounds” value [14] was 8 fold and the “fold loss of activity relative to the parent compounds” value [15] was 32 fold.
Compound arylomycin A2 [reference compound] has an MIC (wild type S. aureus 8325; Table 1, S. aureus 8325) of over 128 µM, an MIC (wild type E. coli MG1655; Table 1, E. coli MG1655) of over 128 µM and an MIC [16] of 1 µM.
For arylomycin C16, the MIC [1] was 0.25 µg/mL, the MIC [2] was 2 µg/mL and the MIC [17] was 8 µg/mL. It also gave an MIC (wild type S. aureus 8325; Resistant strain (wild type)) of over 128 µg/mL, an MIC (wild type E. coli MG1655; Resistant strain (wild type)) of over 128 µg/mL and an MIC [18] of over 128 µg/mL. The MIC [19] was over 128 µg/mL, the MIC [20] was 2 µg/mL and the MIC [21] was 8 µg/mL.

Reference: patent US20160297851A1, “BROAD SPECTRUM […]” (priority 2012, published 2016)
